Measured values reported in patent US20110178119A1, “Bridged N-Bicyclic Sulfonamido Inhibitors of Gamma Secretase” (ELAN PHARMACEUTICALS, INC., priority 2005, published 2011).

Molecular target: T1, gamma-secretase (Homo sapiens, UniProt P49768)
T1 construct: a partially purified extract of IMR-32 cell membranes as the gamma-secretase enzyme preparation; endogenous in cells; host or cells: IMR-32 cell membranes, partially purified extract
Assay: Gamma-secretase APP enzyme assay (cleavage of MBP-C125swe substrate, sandwich ELISA)
Assay type: biochemical
Conditions: partially purified extract of IMR-32 cell membranes as enzyme, 2 h at 37° C, ELISA detection of cleavage product, read-out: γAPP
Excerpt: The gamma-secretase APP enzyme assay was designed to measure the specific proteolytic cleavage of an APP substrate (MBP-C125 Swe fusion protein) at the […] site. The assay used a partially purified extract of IMR-32 cell membranes as the gamma-secretase enzyme preparation and a recombinant fusion protein containing the C-terminal 125 amino acids of the Swedish variant of the APP (MBP-C125swe) as the substrate. This assay involved two steps beginning with the enzymatic reaction generating a cleavage product that was captured with an immobilized antibody specific for the neo-epitope […] site. The captured cleavage product was then detected in a sandwich ELISA assay with a biotinylated reporter antibody that is specific to Aβ (17-28). Streptavidin-linked alkaline phosphatase was then added that would generate a fluorescent signal proportional to the amount of cleavage product. This assay was used to discover small molecule inhibitors of gamma-secretase. Briefly, a 149 mg/ml solution of […] detergent was made with water at 42° C. and then rotated for 30 minutes at the same temperature. […] Louis, Mo.) to a concentration of 8 mg/ml. This solution containing BigCHAPS and lipid at 8 mg/ml is then diluted to 0.53 mg/ml lipid with a pre-warmed solution of Hepes and sodium chloride. This final solution containing Hepes buffer, sodium chloride, BigCHAPS detergent and lipid is used to create working solutions of both gamma-secretase (25 Units) and the MBP-C125 substrate (0.05 mg/ml). Gamma-secretase was then added to a 96-well micro-titre plate and then incubated with various concentrations of inhibitor for 30 minutes at 37° C. MBP-C125 substrate was then added to initiate the reaction that would run for two hours at 37° C. The reaction was quenched with the addition of SDS to a final concentration of 0.1% and then 100 μl of the reaction mixture was transferred to a capture ELISA plate and incubated overnight at 4° C. Detection of the cleavage product was performed using a standard sandwich ELISA assay and quantified using a six point standard curve.

| Compound | IC50 [nM] |
| --- | --- |
| O=S(=O)(c1ccc(Br)cc1)N1C2CCCC1CCC2 [9-(4-bromophenylsulfonyl)-9-azabicyclo[3.3.1]nonane] | 1000 to 2500 |
| C=C1CC2CCCC(C1)N2S(=O)(=O)c1ccc(Cl)cc1 [9-(4-chlorophenylsulfonyl)-3-methylene-9-azabicyclo[3.3.1]nonane] | < 1000 |
| O=S(=O)(c1ccc(Cl)cc1)N1C2CCCC1CC2 [8-(4-chlorophenylsulfonyl)-8-azabicyclo[3.2.1]octane] | 2000 to 5000 |
| O=S(=O)(c1ccc(Cl)cc1)N1C2CCCC1CCC2 [9-(4-chlorophenylsulfonyl)-9-azabicyclo[3.3.1]nonane] | 1000 to 2500 |
| O=S(=O)(c1ccc(Cl)cc1)N1C2CCCC1CC(O)C2 (stereo not shown) [9-(4-chlorophenylsulfonyl)-9-azabicyclo[3.3.1]nonan-3-ol] | 2000 to 5000 |
| O=C1CC2CCCC(C1)N2S(=O)(=O)c1ccc(Cl)cc1 [9-(4-chlorophenylsulfonyl)-9-azabicyclo[3.3.1]nonan-3-one] | < 1000 |
| O=C1NCC2CCCC1N2S(=O)(=O)c1ccc(Cl)cc1 (stereo not shown) [9-(4-chlorophenylsulfonyl)-3,9-diazabicyclo[3.3.1]nonan-2-one] | 2000 to 5000 |
| O=S(=O)(c1ccc(Cl)cc1)N1C2CCCC1CC(=NO)C2 [9-(4-chlorophenylsulfonyl)-9-azabicyclo[3.3.1]nonan-3-one oxime] | 2000 to 5000 |
| O=S(=O)(c1ccc(Cl)cc1)N1C2CCCC1CSC2 [9-(4-chlorophenylsulfonyl)-3-thia-9-azabicyclo[3.3.1]nonane] | < 1000 |
| CN(C(=O)OC(C)(C)C)C1CC2CCCC(C1)N2S(=O)(=O)c1ccc(Cl)cc1 (stereo not shown) [[9-(4-Chloro-benzenesulfonyl)-9-aza-bicyclo[3.3.1]non-3-yl]-methyl-carbamic acid tert-butyl ester] | < 1000 |
| O=S(=O)(c1ccc(Cl)cc1)N1C2CCCC1CN(c1ccccc1)C2 [9-(4-chlorophenylsulfonyl)-3-phenyl-3,9-diazabicyclo[3.3.1]nonane] | 1000 to 2500 |
| O=S(=O)(c1ccc(C(F)(F)F)cc1)N1C2CCCC1CCC2 [9-(4-(trifluoromethyl)phenylsulfonyl)-9-azabicyclo[3.3.1]nonane] | 2000 to 5000 |
| O=S(=O)(c1ccc(Br)cc1)N1C2CCCC1CC2 [8-(4-bromophenylsulfonyl)-8-azabicyclo[3.2.1]octane] | 2000 to 5000 |
| O=S(=O)(c1ccc(Cl)s1)N1C2CCCC1CCC2 [9-(5-chlorothiophen-2-ylsulfonyl)-9-azabicyclo[3.3.1]nonane] | 2000 to 5000 |
| CS(=O)(=O)OC1CC2CCCC(C1)N2S(=O)(=O)c1ccc(Cl)cc1 (stereo not shown) [Methanesulfonic acid 9-(4-chloro-benzenesulfonyl)-9-aza-bicyclo[3.3.1]non-3-yl ester] | 1000 to 2500 |
| O=C1NC(=O)C2CCCC1N2S(=O)(=O)c1ccc(Cl)cc1 [9-[(4-chlorophenyl)sulfonyl]-3,9-diazabicyclo[3.3.1]nonane-2,4-dione] | < 1000 |
| O=S(=O)(c1ccc(Br)c(F)c1)N1C2CCCC1CCC2 [9-(4-bromo-3-fluorophenylsulfonyl)-9-azabicyclo[3.3.1]nonane] | 2000 to 5000 |
| O=S(=O)(c1ccc(Br)s1)N1C2CCCC1CCC2 [9-(5-bromothiophen-2-ylsulfonyl)-9-azabicyclo[3.3.1]nonane] | 2000 to 5000 |
| O=S(=O)(c1ccc(Cl)cc1)N1C2CCCC1COC2 [9-(4-chlorophenylsulfonyl)-3-oxa-9-azabicyclo[3.3.1]nonane] | 2000 to 5000 |
